Read-outs that look alike come from different tables or passages of the source.
Assays:
[1] = test system: NCI-H358 cells (KRAS G12C mutant); test: NCI-H358 cell proliferation inhibition (CellTiter-Glo); type: cell-based; settings: Homo sapiens, NCI-H358, 72 h
Description: The CellTiter-Glo®, assay was used to detect the number of viable cells, in order to evaluate the anti-proliferation efficacy of compounds. […] The compounds were serially diluted 5-fold in DMSO to obtain 8 concentrations, and then further diluted with RPMI-640 (10% FBS) cell culture medium to obtain the working solutions (5′), 20 μL of each working solution was added to the cell culture supernatant in each well, and the plate was further incubated for 3 days at 37° C. with 5% CO2. The plate was then equilibrated with CellTiter-Glo® reagent at room temperature (25° C.) for 10-30 minutes. After aspirating 50 μL of the medium, 50 μL of CellTiter-Glo® reagent was added. The cells were thoroughly mixed with the CellTiter-Glo® reagent using a microplate shaker for 2 minutes, and then incubated at room temperature for 10 minutes. The 96-well plate was placed in a multi-mode microplate reader to record the luminescence values (RLU). The inhibition rate was calculated through the following equation: [formula] Data were analyzed using GraphPad Prism for IC50 values (Note: The negative control refers to the group without inhibitor).

PI3Kα = PI3Kα (Homo sapiens (Human), UniProt P42336); test: Inhibition of PI3Kα efficacy assay (ADP-Glo kinase assay); type: biochemical; settings: read-out: PI3Kα inhibitory activity (IC50)
Sequence of PI3Kα (P42336 whole entry): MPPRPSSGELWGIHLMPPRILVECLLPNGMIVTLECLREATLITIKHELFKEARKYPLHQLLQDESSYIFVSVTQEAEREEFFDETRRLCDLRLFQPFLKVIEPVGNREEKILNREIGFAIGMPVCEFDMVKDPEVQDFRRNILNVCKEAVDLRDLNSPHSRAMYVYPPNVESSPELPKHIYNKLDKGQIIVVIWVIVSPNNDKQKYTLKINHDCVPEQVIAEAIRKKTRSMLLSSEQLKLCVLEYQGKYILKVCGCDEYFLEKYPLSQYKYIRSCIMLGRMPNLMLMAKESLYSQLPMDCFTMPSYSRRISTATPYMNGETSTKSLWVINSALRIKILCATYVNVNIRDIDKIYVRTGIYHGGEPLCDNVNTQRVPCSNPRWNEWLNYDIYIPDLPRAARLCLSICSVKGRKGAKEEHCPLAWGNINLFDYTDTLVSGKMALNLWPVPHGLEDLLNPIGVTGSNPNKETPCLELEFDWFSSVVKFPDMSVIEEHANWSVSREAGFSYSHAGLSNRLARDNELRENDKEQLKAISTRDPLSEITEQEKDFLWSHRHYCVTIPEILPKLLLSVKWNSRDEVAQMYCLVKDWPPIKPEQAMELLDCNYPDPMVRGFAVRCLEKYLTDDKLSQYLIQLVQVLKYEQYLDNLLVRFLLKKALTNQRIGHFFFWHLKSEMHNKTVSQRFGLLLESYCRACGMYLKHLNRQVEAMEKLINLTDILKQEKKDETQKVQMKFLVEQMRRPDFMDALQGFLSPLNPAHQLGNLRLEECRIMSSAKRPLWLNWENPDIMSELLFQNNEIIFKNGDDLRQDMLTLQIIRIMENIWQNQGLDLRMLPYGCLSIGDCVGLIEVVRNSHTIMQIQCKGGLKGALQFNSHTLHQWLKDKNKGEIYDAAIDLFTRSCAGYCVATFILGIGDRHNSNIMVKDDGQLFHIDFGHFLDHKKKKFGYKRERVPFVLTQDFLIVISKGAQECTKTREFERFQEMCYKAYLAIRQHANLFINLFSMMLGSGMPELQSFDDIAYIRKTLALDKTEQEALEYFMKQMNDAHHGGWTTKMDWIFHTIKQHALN
Sequence of PI3Kα (P27986 whole entry partner): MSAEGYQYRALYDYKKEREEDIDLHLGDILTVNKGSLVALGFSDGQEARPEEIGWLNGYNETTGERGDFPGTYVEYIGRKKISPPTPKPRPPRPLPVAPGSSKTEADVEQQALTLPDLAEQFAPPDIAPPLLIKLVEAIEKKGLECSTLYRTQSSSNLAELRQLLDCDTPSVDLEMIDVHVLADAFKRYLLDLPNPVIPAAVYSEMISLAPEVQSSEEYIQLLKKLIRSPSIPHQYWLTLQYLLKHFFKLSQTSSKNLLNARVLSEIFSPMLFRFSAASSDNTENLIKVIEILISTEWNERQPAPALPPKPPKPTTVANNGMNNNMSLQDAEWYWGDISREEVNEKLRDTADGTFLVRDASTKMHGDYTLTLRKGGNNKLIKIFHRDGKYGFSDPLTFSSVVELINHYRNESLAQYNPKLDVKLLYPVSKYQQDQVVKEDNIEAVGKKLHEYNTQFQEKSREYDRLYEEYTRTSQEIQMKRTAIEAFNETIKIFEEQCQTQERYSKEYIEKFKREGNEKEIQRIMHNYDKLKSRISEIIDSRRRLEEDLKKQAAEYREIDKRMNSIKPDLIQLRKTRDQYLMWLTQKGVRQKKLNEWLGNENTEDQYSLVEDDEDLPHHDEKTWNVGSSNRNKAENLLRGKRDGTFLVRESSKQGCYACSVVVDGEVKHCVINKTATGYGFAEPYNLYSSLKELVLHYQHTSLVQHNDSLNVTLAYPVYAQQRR
Description: Inhibition of PI3Kα Efficacy assay The ADP-Glo™ kinase assay was used to assess the inhibition of PI3Kα with our compounds. The utilized proteins and assay reagents were obtained from the ADP-Glo™ Kinase Assay Kit (Promega). Initially, a 2 mM stock solution of the test compound (dissolved in DMSO) was serially diluted in five-fold concentrations using DMSO to obtain eight working solutions 1 (200′). […] Subsequently, 2 μL of 2.5×PI and ATP solution mixture were added to each well, mixed, and incubated at RT for 60 minutes. Then, 5 μL of ADP-Glo (containing 10 mM MgCl2) reagent was added to each well, mixed, and incubated at RT for 40 minutes. Finally, 10 μL of the Kinase Detection Reagent was added to each well, mixed, and incubated at RT for 40 minutes. […] Data were analyzed using GraphPad Prism with log(inhibitor) vs. response—Variable Slope(four parameters) fitting calculations for […]. (Note: The negative control refers to the group without inhibitor, and the blank control refers to the group without enzyme.) The data were presented in Tables 1 to 4.

[2] = H358 cells (G12C mutation), 3 days, Table 6, read-out: NCI-H358 (IC50)

Structure (SMILES): C=CC(=O)N1CCN(c2nc(OC[C@@H]3CCCN3C)nc3ccc(-c4cnc(OC)c(NS(=O)(=O)c5ccc(F)cc5F)c4)cc23)C[C@@H]1CC#N [Example 5, N-(5-(4-((S)-4-acryloyl-3-(cyanomethyl)piperazin-1-yl)-2-(((S)-1-methylpyrrolidin-2-yl)methoxy)quinazolin-6-yl)-2-methoxypyridin-3-yl)-2,4-difluorobenzenesulfonamide]
- IC50 [1, 2]: 5390 nM

Structure (SMILES): COc1ncc(-c2ccc3ncnc(N4CCN(C(=O)/C=C/CN(C)C)CC4)c3c2)cc1NS(=O)(=O)c1ccc(F)cc1F [Example 11, (E)-N-(5-(4-(4-(4-(dimethylamino)but-2-enoyl)piperazin-1-yl)quinazolin-6-yl)-2-methoxypyridin-3-yl)-2,4-difluorobenzenesulfonamide]
- IC50 (PI3Kα; Table 1): 0.00064 µM
- IC50 [1, 2]: 102 nM

Structure (SMILES): C=CC(=O)N1CCN(c2nc(C)nc3ccc(-c4cnc(OC)c(NS(=O)(=O)c5ccc(F)cc5F)c4)cc23)CC1 [Example 29, N-(5-(4-(4-acryloylpiperazin-1-yl)-2-methylquinazolin-6-yl)-2-methoxypyridin-3-yl)-2,4-difluorobenzenesulfonamide]
- IC50 (PI3Kα; Table 1): 0.0413 µM

Structure (SMILES): C=C(F)C(=O)N1C[C@H](C)N(c2ncnc3ccc(-c4cnc(OC)c(NS(=O)(=O)c5c(F)cccc5F)c4)cc23)C[C@H]1C [Example 52, 2,6-difluoro-N-(5-(4-((2S,5R)-4-(2-fluoroacryloyl)-2.5-dimethylpiperazin-1-yl)quinazolin-6-yl)-2-methoxypyridin-3-yl) benzenesulfonamide]
- IC50 (PI3Kα; Table 2): 0.0091 µM

Structure (SMILES): C=CC(=O)N1C[C@H](C)N(c2ncnc3ccc(-c4cnc(OC)c(NS(=O)(=O)c5c(F)cccc5F)c4)cc23)C[C@H]1C [Example 53, N-(5-(4-((2S,5R)-4-acryloyl-2,5-dimethylpiperazin-1-yl)quinazolin-6-yl)-2-methoxypyridin-3-yl)-2,6-difluorobenzene-sulfonamide]
- IC50 (PI3Kα; Table 2): 0.0044 µM
- IC50 [1, 2]: 520 nM

Structure (SMILES): COc1ncc(-c2ccc3ncnc(N4CCN(C(=O)C5=CC(=O)CCC5)CC4)c3c2)cc1NS(=O)(=O)c1c(F)cccc1F [Example 54, 2,6-difluoro-N-(2-methoxy-5-(4-(4-(3-oxocyclohex-1-ene-1-carbonyl)piperazin-1-yl)quinazolin-6-yl)pyridin-3-yl) benzenesulfonamide]
- IC50 (PI3Kα; Table 2): 0.0025 µM
- IC50 [1, 2]: 10.4 nM

Structure (SMILES): COc1ncc(-c2ccc3ncnc(N4CCC5(CN(C(=O)/C=C/n6ccnn6)C5)C4)c3c2)cc1NS(=O)(=O)c1ccc(F)cc1F [Example 61, (E)-N-(5-(4-(2-(3-(1H-1,2,3-triazol-1-yl)acryloyl)-2,6-diazaspiro [3.4]octan-6-yl)quinazolin-6-yl)-2-methoxy-pyridin-3-yl)-2,4-difluoro-benzene-sulfonamide]
- IC50 (PI3Kα; Table 2): 0.0052 µM
- IC50 [1, 2]: 292 nM

Structure (SMILES): C=C(C(=O)N1CCN(c2ncnc3ccc(-c4cnc(OC)c(NS(=O)(=O)c5ccc(F)cc5F)c4)cc23)CC1)C(C)C [Example 63, 2,4-difluoro-N-(2-methoxy-5-(4-(4-(3-methyl-2-methylene-butanoyl)piperazin-1-yl)quinazolin-6-yl)pyridin-3-yl) benzene-sulfonamide]
- IC50 (PI3Kα; Table 2): 0.0062 µM
- IC50 [1, 2]: 19.6 nM

Structure (SMILES): COC(=O)/C=C/C(=O)N1CCN(c2ncnc3ccc(-c4cnc(OC)c(NS(=O)(=O)c5ccc(F)cc5F)c4)cc23)CC1 [Example 67, methyl (E)-4-(4-(6-(5-((2,4-difluorophenyl)sulfonamido)-6-methoxy-pyridin-3-yl)quinazolin-4-yl)piperazin-1-yl)-4-oxobut-2-enoate]
- IC50 (PI3Kα; Table 2): 0.0098 µM
- IC50 [1, 2]: 24.2 nM

Structure (SMILES): COc1ncc(-c2ccc3ncnc(N4CCN(C(=O)c5cccc(O)c5)CC4)c3c2)cc1NS(=O)(=O)c1ccc(F)cc1F [Example 69, 2,4-difluoro-N-(5-(4-(4-(3-hydroxy-benzoyl)piperazin-1-yl)quinazolin-6-yl)-2-methoxy-pyridin-3-yl) benzene-sulfonamide]
- IC50 [1, 2]: 60.7 nM

Structure (SMILES): COc1ncc(-c2ccc3ncnc(N4CCN(C(=O)/C(F)=C/C(C)=O)CC4)c3c2)cc1NS(=O)(=O)c1ccc(F)cc1F [Example 77, (Z)-2,4-difluoro-N-(5-(4-(4-(2-fluoro-4-oxopent-2-enoyl)piperazin-1-yl)quinazolin-6-yl)-2-methoxypyridin-3-yl)benzenesulfonamide]
- IC50 (PI3Kα; Table 2): 0.0039 µM
- IC50 ([1]; read-out: NCI-H358 (IC50, nM)): 221 nM

Structure (SMILES): CCCC(=O)/C=C/C(=O)N1CCN(c2ncnc3ccc(-c4cnc(OC)c(N(C)S(=O)(=O)c5ccc(F)cc5F)c4)cc23)CC1 [Example 80, (E)-2,4-difluoro-N-(2-methoxy-5-(4-(4-(4-oxohept-2-enoyl)piperazin-1-yl)quinazolin-6-yl)pyridin-3-yl)-N-methylbenzenesulfonamide]
- IC50 [1, 2]: 784 nM

Structure (SMILES): COc1ncc(-c2ccc3ncnc(N4CCC5(CN(C(=O)/C=C/C(C)=O)C5)C4)c3c2)cc1N(C)S(=O)(=O)c1ccc(F)cc1F [Example 81, (E)-2,4-difluoro-N-(2-methoxy-5-(4-(2-(4-oxopent-2-enoyl)-2,6-diazaspiro[3.4]octan-6-yl)quinazolin-6-yl)pyridin-3-yl)-N-methylbenzenesulfonamide]
- IC50 [1, 2]: 1090 nM

Structure (SMILES): C=C(F)C(=O)N1CCN(c2ncnc3ccc(-c4cnc(Cl)c(NS(=O)(=O)c5c(F)cccc5F)c4)cc23)CC1 [Example 85, N-(2-chloro-5-(4-(4-(2-fluoroacryloyl)piperazin-1-yl)quinazolin-6-yl)pyridin-3-yl)-2,6-difluorobenzenesulfonamide]
- IC50 (PI3Kα; Table 2): 0.0028 µM
- IC50 [1, 2]: 213 nM

Structure (SMILES): CC(=O)/C=C/C(=O)N1CC2(CCN(c3ncnc4ccc(-c5cnc(Cl)c(NS(=O)(=O)c6c(F)cccc6F)c5)cc34)C2)C1 [Example 86, (E)-N-(2-chloro-5-(4-(2-(4-oxopent-2-enoyl)-2,6-diazaspiro[3.4]octan-6-yl)quinazolin-6-yl)pyridin-3-yl)-2,6-difluorobenzenesulfonamide]
- IC50 (PI3Kα; Table 2): 0.00031 µM
- IC50 [1, 2]: 271 nM

Structure (SMILES): CC(=O)/C=C/C(=O)N1CC2(CCN(c3ncnc4ccc(-c5cnc(Cl)c(NS(=O)(=O)c6c(F)cccc6F)c5)cc34)CC2)C1 [Example 87, (E)-N-(2-chloro-5-(4-(2-(4-oxopent-2-enoyl)-2,7-diazaspiro[3.5]nonan-7-yl)quinazolin-6-yl)pyridin-3-yl)-2,6-difluorobenzenesulfonamide]
- IC50 (PI3Kα; Table 2): 0.0024 µM
- IC50 [1, 2]: 131 nM

Structure (SMILES): COc1ccc(-c2ccc3ncnc(N4CCN(C(=O)/C=C/C(C)=O)CC4)c3c2)cc1NS(=O)(=O)c1ccc(F)cc1F [Example 95, (E)-2,4-difluoro-N-(2-methoxy-5-(4-(4-(4-oxopent-2-enoyl)piperazin-1-yl)quinazolin-6-yl)phenyl)benzenesulfonamide]
- IC50 (PI3Kα; Table 2): 0.414 µM
- IC50 [1, 2]: 576 nM

Structure (SMILES): C=C(F)C(=O)N1CCN(c2ncnc3ccc(-c4cnc(OC)c(NS(=O)(=O)c5c(F)cc(F)cc5F)c4)cc23)CC1 [Example 98, 2,4,6-trifluoro-N-(5-(4-(4-(2-fluoroacryloyl)piperazin-1-yl)quinazolin-6-yl)-2-methoxypyridin-3-yl)benzenesulfonamide]
- IC50 (PI3Kα; Table 2): 0.0098 µM
- IC50 [1, 2]: 8.5 nM

Structure (SMILES): COc1c(F)cc(-c2ccc3ncnc(N4CCN(C(=O)/C=C/C(C)=O)CC4)c3c2)cc1NS(=O)(=O)c1ccc(F)cn1 [Example 121, (E)-5-fluoro-N-(3-fluoro-2-methoxy-5-(4-(4-(4-oxopent-2-enoyl)piperazin-1-yl)quinazolin-6-yl)phenyl)pyridine-2-sulfonamide]
- IC50 (PI3Kα; Table 2): 0.111 µM

Structure (SMILES): CC(=O)/C=C/C(=O)N1CCN(c2ncnc3ccc(-c4cnc(CO)c(NS(=O)(=O)c5ccc(F)cc5F)c4)cc23)CC1 [Example 183, (E)-2,4-difluoro-N-(2-(hydroxy-methyl)-5-(4-(4-(4-oxopent-2-enoyl)piperazin-1-yl)quinazolin-6-yl)pyridin-3-yl)benzene-sulfonamide]
- IC50 (PI3Kα; Table 4): 0.0053 µM

Structure (SMILES): COc1ncc(-c2ccc3ncnc(N4CCN(C(=O)/C=C/C(C)=O)CC4)c3c2)cc1NS(=O)(=O)c1ccc(C(=O)O)cc1F [Example 209, (E)-3-fluoro-4-(N-(2-methoxy-5-(4-(4-(4-oxopent-2-enoyl)piperazin-1-yl)quinazolin-6-yl)pyridin-3-yl)sulfamoyl)benzoic acid]
- IC50 (PI3Kα; Table 4): 0.00057 µM

Structure (SMILES): [2H]C([2H])([2H])n1cc(-c2ccc3ncnc(N4CCN(C(=O)/C=C/C(C)=O)CC4)c3c2)cc(NS(=O)(=O)c2ccc(F)cc2F)c1=O [Example 244, (E)-2,4-difluoro-N-(1-(methyl-d3)-2-oxo-5-(4-(4-(4-oxopent-2-enoyl)piperazin-1-yl)quinazolin-6-yl)-1,2-dihydropyridin-3-yl)benzenesulfonamide]
- IC50 (PI3Kα; Table 4): 0.27 µM
